Experimental data: patent US10450322B2, “Low molecular weight derivatives of carboxamide halogenated porphyrins, namely chlorins and bacteriochlorins, and their applications thereof” (LUZITIN, S.A., priority 2015, dated 2019)
pIC50: −log10 of the molar value.

Experiments:
[1] = Optical absorption (UV-Vis-NIR) in ethanol; type: physicochemical
Description: The UV-Vis-NIR optical absorption was recorded with an Agilent Cary5000 UV-Vis-NIR Spectrophotometer in the determination of the molar absorption coefficient and with Shimadzu UV-2100 spectrometer in routine measurements. The absorption spectra were recorded in the wavelengths from 300 nm up to 800 nm.
(§1) This is indicative of negligible aggregation between the molecules, which exist mostly as monomers at these concentrations in the solvents studied. Table 1 presents the infrared molar absorption coefficient (εmax) and wavelength maximum in ethanol of a typical carboxamide halogenated bacteriochlorin derivative of Formula (I). The same table also presents triplet lifetimes (τT) in air and N2 saturated solutions, fluorescence lifetime (τS), the quantum yields of fluorescence (ΦF), triplet state formation (ΦT), and singlet oxygen generation (ΦΔ) in ethanol, and photodegradation quantum yield (Φpd) in methanol:PBS (3:2). Triplet decays were clearly mono-exponential and in air-saturated ethanol the triplet lifetimes were in the range of 200 to 300 nanoseconds. Such values are consistent with diffusion limited energy transfer from the triplet state of the photosensitizer to molecular oxygen through a charge-transfer interaction (8). The absorption intensity of the test compounds in the photobleaching studies followed a mono-exponential decrease as a function of the illumination time.

[2] = Skin permeation: depth by confocal fluorescence microscopy; type: in vitro ADME, pig; details: in 90 minutes, topical formulation
Description: Skin permeation was evaluated using a topical formulation containing benzyl alcohol (23%), Kolliphor EL (17%), Transcutol (50%) and water (10%). The photosensitizer added to this formulation corresponded to 1.85% of the mass before its addition, and the gelling agent (Aerosil 200) added corresponded to 5% of the mass before its addition. The photosensitizer was first dissolved in Transcutol and exposed to 3 min of vortex and 5 min of ultrasounds. A mixture of benzyl alcohol and Kolliphor EL was then added. Immediately after, it was mixed in an IKA MIXER at 200 rpm for 5 min and water was added drop-by-drop for 10 min. Finally, the gelling agent, Aerosil 200, was mixed in and the microemulsion gel was obtained. Skin permeation studies were performed in pig skin using samples collected from 5 months old pigs. The hair was removed as well as the underlying fatty layer, before the permeation studies.
This example describes the permeation of carboxamide bacteriochlorin with formula IX in pig skin. The topical formulation and the animal model were described in the Materials and Methods section. The permeation was assessed both in terms of the amount of photosensitizer in the skin after designated times of contact between the topical formulation and the skin (incubation time) and in terms of the depth of the permeation in the skin. […]

[3] = Triplet-triplet transient absorption / photoacoustic calorimetry; type: physicochemical
Description: The triplet-triplet transient absorption was recorded in an Applied Photophysics LKS.60 laser flash photolysis spectrometer, with a Hewlett-Packard Infinium Oscilloscope and a Spectra-Physics Quanta-Ray GCR-130 Nd:YAG laser as excitation source. The pulse excitation was set at 355 nm.
The thermal energy released after electronic excitation was measured by time-resolved photoacoustic calorimetry using a front-face irradiation photoacoustic cell and a EKSPLA OPO model PG-122 pumped by an EKSPLA Nd:YAG. The signal detection was made using a 2.25 MHz Panametrics transducer. The excitation was at 690 nm and azulene was used as photoacoustic calorimetry reference.
as §1

[4] = test system: A549 (human lung adenocarcinoma) cell line; test: In vitro phototoxicity / dark toxicity towards A549 cells; type: cell-based
Description: Phototoxicity towards cancer cell lines was evaluated in vitro using A549 (human lung adenocarcinoma) and CT26 (mouse colon adenocarcinoma) cell lines. The cells were cultured in Dulbecco's modified Eagles's medium (DMEM) supplemented with 10% heat-inactivated fetal bovine serum and 1% penicillin. Cells were plated at a density of 20,000/well and 15,000/well respectively, in flat-bottom 96-well plates. On the following day, diluted solutions of the test compound were prepared (1 mM stock) and added to the cells for 30-min incubation. […] The wells were washed two times with PBS and irradiated after 30-min of incubation using the LED light described above. Light dose was 1 J/cm^2. The medium was replaced with fresh one after irradiation and the plates were incubated for 24 h, at which time the cellular viability was assessed by resazurin method using a microplate spectrophotometer (Synergy HT Biotek).
This example describes the evaluation of in vitro phototoxicity of a carboxamide bacteriochlorin with formula IX after light irradiation, and their potential for PDT of cancer. The formulation employed was the same as that of Example 4. […] The phototoxicity was measured according to the description in the Materials and Methods section. The phototoxicity of the test compound was assessed in terms of the percentage of survival of the cells for various concentrations of the test compound incubated for 30 min, followed by washings with PBS, addition of the culture medium and illumination with a light dose of 1 J/cm^2.

[5] = Fluorescence emission, quantum yield and lifetime; type: physicochemical; details: in ethanol
Description: The fluorescence emission spectra were recorded in the homemade setup composed of a Horiba-Jobin Fluoromax 4, used to excite the samples, connected to a sample holder through an optical fiber. In the sample holder, perpendicular to excitation fiber, an optical fiber is connected to drive the emission light to the spectrophotometer detector Avantes model SensLine, provided with AvaSoft 7.7.2. The excitation slit was set at 2 mm and the integration time was 3 s, with average number of 3. The spectra were collected from 200 nm up to 1100 nm using standard cuvettes of 1 cm of optical path. Fluorescence quantum yields (ΦF) were obtained comparing the integrated fluorescence of the samples with that of a reference fluorimetric compound with known ΦF.
The fluorescence lifetime was determined in homemade equipment composed of a LED that produces a light pulse for exciting the sample, a sample holder, detector and optics. […]
This is indicative of negligible aggregation between the molecules, which exist mostly as monomers at these concentrations in the solvents studied. […] The same table also presents triplet lifetimes (τT) in air and N2 saturated solutions, fluorescence lifetime (τS), the quantum yields of fluorescence (ΦF), triplet state formation (ΦT), and singlet oxygen generation (ΦΔ) in ethanol, and photodegradation quantum yield (Φpd) in methanol:PBS (3:2). […]

For CNC(=O)c1c2nc(c(-c3c(F)cccc3F)c3ccc(cc4nc(c(-c5c(F)cccc5F)c5ccc1[nH]5)CC4)[nH]3)CC2 [formula IX, 5-methylcarboxamide-10,20-bis-(2,6-difluorophenyl)bacteriochlorin], the “λ (wavelength of maximum infrared absorption)” value [1] was 734 nm, the “ε (λ) molar absorption coefficient” value ([1]; at 734 nm) was 69 10^3 M^−1 cm^−1 and the “depth of penetration in the skin” value [2] was 40 μm. The “τT (N2) triplet lifetime” value ([3]; N2-saturated ethanol) was 71 ± 5 μs, the “τT (air) triplet lifetime” value ([3]; air-saturated ethanol) was 210 ns and the “ΦT triplet state formation quantum yield” value ([3]; in ethanol) was 0.45. The pIC50 ([4]; 30 min incubation, irradiated with 1 J/cm^2) was 8.60, the “photosensitizer concentration at which nearly all cells are killed” value ([4]; A549, 30 min incubation, 1 J/cm^2 (FIG. 6)) was 50 nM and the “concentration with no signs of toxicity in the dark” value ([4]; A549, incubation in the dark for 30 min) was “up to 40 μM”. For the same compound, the “ΦF fluorescence quantum yield” value [5] was 0.20 and the τS fluorescence lifetime [5] was 3.2 ns.
